We go through five compounds from patent publication US6413935B1, “Induction of immune response against desired determinants” (priority 1993, dated 2002).

“And” between values parts separate entries of the source, which are not always exact repeats. Equal values may be shown once. Read-outs that look alike come from different tables or passages of the source. Where only a bound is given, the exact number is not on record here.

One assay deals with T1, IA^k (Mus musculus, UniProt P01910+P06343).
T1 construct: Various cell lines were used as sources of purified human and mouse class II molecules; endogenous in cells; host or cells: CH12
Put plainly: biochemical. Type of assay: binding. As to conditions: Table III; read-out: Capacity to bind purified IA^k, IC50.

The next assay concerns the target T2, IE^d (Mus musculus, UniProt P01904+P01915).
T2 construct: Various cell lines were used as sources of purified human and mouse class II molecules; endogenous in cells; host or cells: A20
T2 sequence (P01904 26-255): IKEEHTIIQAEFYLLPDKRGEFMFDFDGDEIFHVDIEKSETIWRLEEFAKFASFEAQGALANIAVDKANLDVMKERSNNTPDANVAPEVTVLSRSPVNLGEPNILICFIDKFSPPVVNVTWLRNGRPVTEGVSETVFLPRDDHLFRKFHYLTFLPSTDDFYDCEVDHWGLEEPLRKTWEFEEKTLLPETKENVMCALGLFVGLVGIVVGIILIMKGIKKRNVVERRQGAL
T2 sequence (P01915 27-264 limits assumed): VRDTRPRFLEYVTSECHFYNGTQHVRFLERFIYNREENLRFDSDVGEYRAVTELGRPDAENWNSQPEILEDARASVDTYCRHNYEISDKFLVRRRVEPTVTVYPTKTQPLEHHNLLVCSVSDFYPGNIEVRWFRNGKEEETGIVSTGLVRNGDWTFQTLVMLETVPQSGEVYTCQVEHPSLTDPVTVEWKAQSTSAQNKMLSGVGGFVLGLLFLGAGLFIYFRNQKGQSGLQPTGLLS
Nature of the assay: biochemical. Type of assay: binding. The conditions noted are these: Table III; read-out: Capacity to bind purified IE^d, IC50.

A further assay concerns the target T3, IA^s (Mus musculus, UniProt P06345+P14437).
T3 construct: Various cell lines were used as sources of purified human and mouse class II molecules; endogenous in cells; host or cells: LS102.9
T3 sequence (P14437 1-233): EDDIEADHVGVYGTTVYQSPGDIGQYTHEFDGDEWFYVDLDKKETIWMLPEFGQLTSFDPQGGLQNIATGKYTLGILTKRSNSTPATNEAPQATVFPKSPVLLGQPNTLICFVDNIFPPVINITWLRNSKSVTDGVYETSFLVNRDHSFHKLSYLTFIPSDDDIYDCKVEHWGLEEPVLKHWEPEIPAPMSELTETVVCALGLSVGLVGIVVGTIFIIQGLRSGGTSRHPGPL
T3 sequence (P06345 28-263): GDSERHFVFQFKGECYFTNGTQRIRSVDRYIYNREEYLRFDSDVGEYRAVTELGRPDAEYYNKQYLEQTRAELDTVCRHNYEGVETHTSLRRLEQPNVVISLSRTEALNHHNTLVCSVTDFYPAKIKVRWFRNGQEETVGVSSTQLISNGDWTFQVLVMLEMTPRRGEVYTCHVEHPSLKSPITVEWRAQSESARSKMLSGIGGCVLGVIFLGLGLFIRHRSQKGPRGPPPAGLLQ
Nature of the assay: biochemical. Type of assay: binding. The conditions noted are these: Table III; read-out: Capacity to bind purified IA^s, IC50.

In a further assay the test system is DR7. The conditions noted are these: read-out: PADRE Class II Binding Affinities DR7, Table IX.
In a further assay the target is DR4w4 (Homo sapiens, UniProt P01903+P01911, A100K/A169T/F76Y/I96L/K127E/L162R/M171V/N62H/P40V/Q125Y/R42H/S133A/S149N/S66Y/V115G/V209L/W38E). Nature of the assay: biochemical.
A further assay addresses DR1 (Homo sapiens, UniProt P01903+P01911, A100R/D57E/F55L/F60I/F76Y/I96L/L162R/M171V/P40L/Q125E/R42F/V115G/Y59C). Put plainly: biochemical.
The test system of another assay is DR5. As to conditions: read-out: PADRE Class II Binding Affinities DR5, Table IX.
The next assay deals with DR2w2a (Homo sapiens, UniProt P01903+Q30154). Nature of the assay: biochemical. The conditions noted are these: PADRE Class II Binding Affinities DR2w282, Table IX.
A further assay addresses DR3 (Homo sapiens, UniProt P01903+P01911, A100K/A102G/A103R/A169T/F55Y/I96L/K41T/L162R/M171V/P40S/Q125H/Q178H/Q39Y/R42S/S66N/T106N/T262R/W38E/Y61H). Put plainly: biochemical. The conditions noted are these: PADRE Class II Binding Affinities DR3, Table IX.
Another assay relates to human PBMC T cell lines. Type of assay: cell-based.
The mark [1] stands for this setting: PADRE Class II Binding Affinities DR4w4, Table IX.
[2] abbreviates: PADRE Class II Binding Affinities DR1, Table IX.

Sequence of DR2w2a (P01903 26-254): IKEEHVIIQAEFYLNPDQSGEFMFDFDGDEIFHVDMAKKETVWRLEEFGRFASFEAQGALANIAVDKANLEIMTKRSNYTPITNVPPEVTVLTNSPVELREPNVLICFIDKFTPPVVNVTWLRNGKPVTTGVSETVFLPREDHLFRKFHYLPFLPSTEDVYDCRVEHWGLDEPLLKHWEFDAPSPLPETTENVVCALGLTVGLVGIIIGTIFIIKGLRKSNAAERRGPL
Sequence of DR2w2a (Q30154 30-266): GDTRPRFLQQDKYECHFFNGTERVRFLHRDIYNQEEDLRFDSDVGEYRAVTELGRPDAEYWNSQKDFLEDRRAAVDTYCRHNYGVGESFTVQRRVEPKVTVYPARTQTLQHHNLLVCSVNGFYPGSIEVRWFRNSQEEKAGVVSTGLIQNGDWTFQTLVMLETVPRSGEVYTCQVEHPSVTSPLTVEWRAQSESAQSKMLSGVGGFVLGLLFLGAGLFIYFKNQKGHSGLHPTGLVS
T1 sequence (P01910 24-256): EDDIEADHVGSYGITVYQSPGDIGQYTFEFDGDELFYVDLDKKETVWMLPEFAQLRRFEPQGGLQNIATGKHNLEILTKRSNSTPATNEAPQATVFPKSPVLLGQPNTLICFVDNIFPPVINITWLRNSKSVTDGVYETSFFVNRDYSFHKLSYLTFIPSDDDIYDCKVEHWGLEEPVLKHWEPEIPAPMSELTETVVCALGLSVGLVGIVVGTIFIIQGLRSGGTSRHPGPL
T1 sequence (P06343 28-263): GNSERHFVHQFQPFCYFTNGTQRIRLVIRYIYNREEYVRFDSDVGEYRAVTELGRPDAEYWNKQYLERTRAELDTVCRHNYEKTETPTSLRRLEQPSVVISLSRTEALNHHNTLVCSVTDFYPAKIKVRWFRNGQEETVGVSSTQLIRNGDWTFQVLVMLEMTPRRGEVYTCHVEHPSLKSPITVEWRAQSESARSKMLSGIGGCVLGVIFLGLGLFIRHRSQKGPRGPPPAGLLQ

For `CC[C@H](C)[C@H](N)C(=O)N[C@@H](CO)C(=O)N[C@@H](CCC(N)=O)C(=O)N[C@@H](C)C(=O)N[C@H](C(=O)N[C@@H](Cc1c[nH]cn1)C(=O)N[C@@H](C)C(=O)N[C@@H](C)C(=O)N[C@@H](Cc1c[nH]cn1)C(=O)N[C@@H](C)C(=O)N[C@@H](CCC(=O)O)C(=O)N[C@H](C(=O)N[C@@H](CC(N)=O)C(=O)N[C@@H](CCC(=O)O)C(=O)O)[C@@H](C)CC)C(C)C` [Ova 323-336, ISQAVHAAHAEINE], the IC50 on IA^k is 1000 nM; at IE^d, greater than 10000 nM; on IA^s it was 1040 nM.

Turning to `CC(C)C[C@H](NC(=O)[C@@H](NC(=O)[C@H](CC(N)=O)NC(=O)[C@H](C)NC(=O)[C@H](CCCNC(=N)N)NC(=O)[C@@H](NC(=O)[C@H](CC1CCCCC1)NC(=O)[C@H](CCCNC(=N)N)NC(=O)[C@@H](C)N)C(C)C)[C@@H](C)O)C(=O)N[C@@H](CCCCN)C(=O)N[C@@H](C)C(=O)N[C@@H](C)C(=O)N[C@H](C)C(N)=O` [Peptide 965.06], the IC50 was found to be 73.5 nM in the assay on DR7; 1.3 nM at DR4w4 (setting [1]); 0.8 nM on DR1 (setting [2]); 5.6 nM with DR5; 6.4 nM on DR2w2a.

For `CC(C)C[C@H](NC(=O)[C@@H](NC(=O)[C@H](CC(N)=O)NC(=O)[C@H](C)NC(=O)[C@H](CCCCN)NC(=O)[C@@H](NC(=O)[C@H](CC1CCCCC1)NC(=O)[C@H](CCCCN)NC(=O)[C@@H](C)N)C(C)C)[C@@H](C)O)C(=O)N[C@@H](CCCCN)C(=O)N[C@@H](C)C(=O)N[C@@H](C)C(=O)N[C@H](C)C(N)=O` [Peptide 965.011], the IC50 in the assay on DR7 (listed as 965.012) is 781 nM; at DR3 it was 592 nM and 4590 nM; on DR1 (setting [2]), 1.5 nM and 1.3 nM; with DR5 it was 11.8 nM; with DR5 (listed as 965.012), 2.2 nM; at DR2w2a it was 12.5 nM and 10.5 nM.

For the compound `CC(C)C[C@H](NC(=O)[C@@H](NC(=O)[C@H](Cc1c[nH]c2ccccc12)NC(=O)[C@H](C)NC(=O)[C@H](Cc1ccc(O)cc1)NC(=O)[C@@H](NC(=O)[C@H](CC1CCCCC1)NC(=O)[C@H](CCCCN)NC(=O)[C@@H](C)N)C(C)C)[C@@H](C)O)C(=O)N[C@@H](CCCCN)C(=O)N[C@@H](C)C(=O)N[C@@H](C)C(=O)N[C@H](C)C(N)=O` [Peptide 965.051], the IC50 with DR7 (listed as 965.052) was 25.5 nM; on DR4w4 (setting [1]), 0.3 nM and 0.8 nM; on DR1 (setting [2]) it was 0.5 nM and 0.7 nM; in the assay on DR5, 5.7 nM; with DR5 (listed as 965.052) it was 6.9 nM; on DR2w2a, 7.1 nM and 9 nM.

With `CC(C)C[C@H](NC(=O)[C@@H](NC(=O)[C@H](Cc1ccc(O)cc1)NC(=O)[C@H](C)NC(=O)[C@H](C)NC(=O)[C@@H](NC(=O)[C@H](CC1CCCCC1)NC(=O)[C@H](CCCCN)NC(=O)[C@@H](C)N)C(C)C)[C@@H](C)O)C(=O)N[C@@H](CCCCN)C(=O)N[C@@H](C)C(=O)N[C@@H](C)C(=O)N[C@H](C)C(N)=O` [Peptide 965.091], in the assay with human PBMC T cell lines, the “Donors with significant (>10,000 cpm) T cell response / donors tested, second stimulation” value is 4/5. Further, the “Donors with significant (>10,000 cpm) T cell response / donors tested, third stimulation” value with human PBMC T cell lines was 4/5. In addition, the IC50 on DR4w4 (PADRE Class II Binding Affinities DR4w4) was 1 nM; at DR3, 450 nM and 3210 nM; at DR1 (PADRE Class II Binding Affinities DR1) it was 0.8 nM; at DR1 (setting [2]), 0.6 nM; in the assay with DR5 (listed as 965.092) it was 6.5 nM; at DR2w2a, 7.4 nM and 6.4 nM.
